Read-outs that look alike come from different tables or passages of the source. One block for each molecule: values may come before it.
Experiments:
ADAM10 [1] = molecular target: T1, ADAM10 (Homo sapiens, UniProt O14672); experiment: ADAM10 glycosylated substrate uHTS/HTS assay; assay type: biochemical
T1 construct: purchased R&D Systems 936-AD
T1 sequence (O14672 214-748): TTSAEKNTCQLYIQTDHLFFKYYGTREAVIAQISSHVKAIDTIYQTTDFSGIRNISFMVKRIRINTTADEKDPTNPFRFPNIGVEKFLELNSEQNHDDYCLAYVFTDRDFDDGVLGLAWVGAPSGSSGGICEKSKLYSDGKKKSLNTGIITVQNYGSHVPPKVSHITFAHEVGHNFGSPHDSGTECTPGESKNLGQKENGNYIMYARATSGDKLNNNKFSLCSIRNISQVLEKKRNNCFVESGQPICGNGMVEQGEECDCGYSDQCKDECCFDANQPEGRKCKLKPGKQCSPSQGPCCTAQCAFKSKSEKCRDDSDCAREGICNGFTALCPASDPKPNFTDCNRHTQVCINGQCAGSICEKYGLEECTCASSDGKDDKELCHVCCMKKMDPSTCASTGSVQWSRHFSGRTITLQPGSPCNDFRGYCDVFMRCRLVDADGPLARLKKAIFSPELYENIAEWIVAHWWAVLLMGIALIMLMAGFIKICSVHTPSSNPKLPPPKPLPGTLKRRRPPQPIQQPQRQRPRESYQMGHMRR
Procedure: To enable uHTS both ADAM10 and ADAM17 glycosylated substrate[13] (Fig. 1A) assays were miniaturized to 1536 well plate format. The workflow of the assays in 384 well plate format was recaptured in 1536 well plate format and assay volume was scaled down to 5 µL.
Both assays followed the same general protocol. […] Reactions were incubated at RT for 2 h, after which the fluorescence was measured using Perkin Elmer Viewlux multimode microplate imager (λexcitation = 360 nm, λemission = 460 nm). Final concentration of test compounds in assays was 7.0 µM.
(§1) The miniaturized 1536-well plate format ADAM10 and ADAM17 assays were used to screen a collection of ≈370,000 compounds (MLSMR library, provided by the NIH) on the automated Kalypsys/GNF platform at the Scripps Research Institute Molecular Screening Center (SRIMSC, Jupiter, FL. More details at http://hts.florida.scripps.edu/). […] Both uHTS campaigns were run separately but in a similar manner. Briefly, the first step was the primary screen of all MLSMR’s test compounds as singlicate against the ADAM10 or ADAM17 target at a final concentration of 7.0 μM. Next, compounds selected as primary hits were cherry-picked and retested in triplicate against the primary screen target and its anti-target (ADAM17 for the ADAM10 screening effort, and vice-versa) at the same final concentration of 7.0 μM. […] All data generated during this effort were uploaded to the SRIMSC’s institutional screening database (Assay Explorer, Symyx). Sample to background (S/B) ratios, as well as Z and Z′ values were calculated on a per-plate basis as described before. Curve fitting and resulting IC50 determinations were performed as previously reported.

ADAM17 [2] = molecular target: T2, ADAM17 (Homo sapiens, UniProt P78536); experiment: ADAM17 glycosylated substrate uHTS/HTS assay; assay type: biochemical; conditions: for IC50: original uHTS dose response, 10-point 1:3 dilutions starting at 70 µM
T2 construct: purchased R&D Systems 930-ADB
Procedure: Both assays followed the same general protocol. […] After 30 min incubation at RT, the reactions were started by addition of 2.5 µL of 2x solutions of glycosylated substrate (20 µM). Reactions were incubated at RT for 2 h, after which the fluorescence was measured using Perkin Elmer Viewlux multimode microplate imager (λexcitation = 360 nm, λemission = 460 nm). Final concentration of test compounds in assays was 7.0 µM.
as §1

ADAM10 [3] = molecular target: T1, ADAM10; conditions: cited from earlier work
[4] = tested on: shedding of CXCL16 in A549 cells; experiment: CXCL16 shedding inhibition (ELISA); assay type: cell-based, human; conditions: TNF/IFN stimulation 24 h
Procedure: (§2) A549 cells were seeded in 12-well plates and grown to confluency in DMEM supplemented with 10% FBS and 1% P/S. Subsequently, cells were starved serum-free for 4 h, incubated for 1 h with GI 254023X or CID 3117694 (concentrations as indicated) or DMSO (vehicle, 0.1%) and afterwards stimulated with 10 ng/mL TNF and 10 ng/mL IFN for 24 h or left untreated in the presence of inhibitors or DMSO. Supernatants (500 µL) were harvested and centrifuged for 10 min at 16100 g and 4 °C. […] of CXCL16 were measured using the DuoSet human CXCL16 Elisa Kit (R&D systems, Wiesbaden, Germany). Samples were stored at −80 °C and diluted 2-fold after careful thawing. The standard ranged from 0 to 25,000 pg/mL with a detection limit of 391 pg/mL. For detection of soluble syndecan-4, conditioned media (200 µL) were 2-fold diluted in blotting buffer (0.15 M NaCl buffered to pH 4.5 with 50 mM sodium acetate, and with 0.1% Triton X-100), and applied to cationic polyvinylidene difluoride-based membranes (Hybond-N, Amersham Biosciences, Freiburg, Germany) under vacuum in a dot blot apparatus (Amersham Biosciences). The membranes were blocked for 1 h with PBS-T supplemented with 1% bovine serum albumin and 3% milk powder. Human syndecan-4 was detected by incubating membranes overnight at 4 °C with mouse anti-syndecan-4 mAb (0.6 µg/mL) followed by incubation with POD-coupled goat anti-mouse Ab (27 ng/mL in PBS, Jackson Immunoresearch). Chemiluminescence was recorded and quantified using the luminescent image analyzer LAS3000 substrate after addition of ECL advanced substrate (Amersham Biosciences).

[5] = tested on: CCL2-induced migration of peripheral blood mononuclear cells (PBMC); experiment: PBMC migration assay; assay type: cell-based
Procedure: (§3) For PBMC or primary human neutrophil chemotaxis assays, transwells with 8 or 5 µm pores were filled with 100 µL of cell suspension (1 × 10^6 cells in 100 µL DMEM + 0.2% BSA). Lower wells were filled with stimulus solution (3 nM CCL2 or 10 µg/mL CXCL8 (IL8) in assay buffer (RPMI + 0.2% BSA). After incubation of PBMCs for 2 h or neutrophils for 45 min, migrated cells were quantified in the lower well. For inhibitor studies, cells were pre-incubated in migration medium for 30 min and subsequently subjected to the migration experiment. Migrated neutrophils or PBMCs were quantified by measurement of endogenous glucuronidase activity as described.

[6] = tested on: syndecan-4 shedding in A549 cells; experiment: Syndecan-4 shedding inhibition (dot blot); assay type: cell-based, human; conditions: TNF/IFN 24 h
Procedure: as §2, with “For detection of soluble syndecan-4, conditioned media (200 µL) were 2-fold diluted in blotting buffer (0.15 M NaCl buffered to pH 4.5 with 50 mM sodium acetate, and with 0.1% Triton X-100), and applied to cationic polyvinylidene difluoride-based membranes (Hybond-N, Amersham Biosciences, Freiburg, Germany) under vacuum in a dot blot apparatus (Amersham Biosciences). The membranes were blocked for 1 h with PBS-T supplemented with 1% bovine serum albumin and 3% milk powder.” left out

[7] = tested on: IL-8-induced migration of primary human neutrophils; experiment: Neutrophil migration assay; assay type: cell-based
Procedure: as §3

ADAM17 [8] = molecular target: T2, ADAM17; conditions: cited from earlier work
ADAM10 [9] = molecular target: T1, ADAM10; experiment: Dual inhibition studies of ADAM10 with AHA and CID 3117694; assay type: biochemical
Procedure: 5 µL of 4X ADAM10 solution ([…]) were added to solid bottom black 384 low volume plates (Nunc, cat# 264705). […] 5 µL of 4X CID 3117694 were added to the wells containing AHA such that the final assay concentrations of CID 3117694 were 0.275, 0.55, 1.1, 2.2, and 4.4 µM. Enzyme-inhibitor mixtures were incubated for 1 h at RT after which 5 µL of 4X glycosylated substrate was added to all wells. Reactions were incubated at RT for 2 h, after which the fluorescence was measured using the Synergy H4 multimode microplate reader (λexcitation = 360 nm, λemission = 460 nm). IC50 values were calculated by fitting normalized data to sigmoidal log vs. response equation utilizing non-linear regression analysis from GraphPad Prizm 6.
Multi-drug combination dose-effect analysis using Compusyn software (ComboSyn, Inc. 599 Mill Run, Paramus, NJ, 07653, USA) was utilized to determine whether inhibitor combinations produced synergy, antagonism, or no effect as compared to a single inhibitor. Combination Index values were obtained using Combination Index (CI) Equation of Chou-Talalay[56] in Compusyn software (ComboSyn, Inc. 599 Mill Run, Paramus, NJ, 07653, USA) and a normalized isobologram was constructed: (D)1/(Dx)1+(D)2/(Dx)2=CI
In the denominators, (Dx)1 is the doses of Drug1 alone that inhibits x% while (Dx)2 is the dose of Drug2 alone that inhibits x%. […] Effect was determined according to the Table 1 (from ref. [57]).

ADAM10 [10] = molecular target: T1, ADAM10; experiment: ADAM10 non-glycosylated substrate assay; assay type: biochemical; conditions: ADAM10
From the text: Additionally, we synthesized a non-glycosylated version, E(Edans)-[…]-K(Dabcyl), to be used as a control in the follow-up studies.

[11] = original uHTS dose response, 10-point 1:3 dilutions starting at 70 µM

T2 sequence (P78536 215-824): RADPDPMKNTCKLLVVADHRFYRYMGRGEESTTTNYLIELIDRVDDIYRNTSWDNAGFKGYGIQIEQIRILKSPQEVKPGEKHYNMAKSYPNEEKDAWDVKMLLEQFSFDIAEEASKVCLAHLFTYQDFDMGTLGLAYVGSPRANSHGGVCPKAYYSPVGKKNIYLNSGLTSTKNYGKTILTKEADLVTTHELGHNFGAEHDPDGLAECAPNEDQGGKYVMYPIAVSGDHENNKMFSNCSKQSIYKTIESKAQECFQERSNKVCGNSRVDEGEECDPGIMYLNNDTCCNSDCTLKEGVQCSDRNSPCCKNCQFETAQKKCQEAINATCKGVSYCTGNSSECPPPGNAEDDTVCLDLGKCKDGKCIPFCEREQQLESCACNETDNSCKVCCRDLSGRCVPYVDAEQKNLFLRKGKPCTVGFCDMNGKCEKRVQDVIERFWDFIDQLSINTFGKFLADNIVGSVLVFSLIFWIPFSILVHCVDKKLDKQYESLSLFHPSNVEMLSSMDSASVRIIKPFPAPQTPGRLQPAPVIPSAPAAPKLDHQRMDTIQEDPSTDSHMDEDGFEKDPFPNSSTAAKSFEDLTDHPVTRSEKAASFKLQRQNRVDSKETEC

IC50 (ADAM10 [1]; [11]): > 70 µM | activity against ADAM17 of reordered powder versus original testing (ADAM17 [2]; reordered powder, 10-point 1:3 dilutions starting at 100 µM): significantly lower activity
Molecule: O=C(O)CCC(=O)c1c[nH]c2ccccc12 [CID 730037]

Molecule: CNC(=O)[C@@H](NC(=O)[C@H](CCCc1ccccc1)[C@H](C)N(O)C=O)C(C)(C)C [GI 254023X, reference compound]
IC50 (ADAM10 [3]): 0.0053 µM | inhibition of cytokine-inducible shedding of CXCL16 [4]: inhibited shedding | inhibition of PBMC migration [5]: completely inhibited migration | inhibition of syndecan-4 shedding [6]: inhibited shedding | inhibition of neutrophil migration [7]: completely inhibited migration | IC50 (ADAM17 [8]): 0.541 µM

IC50 (ADAM10 [9]; AHA alone, read-out: AHA IC50, ADAM10-mediated hydrolysis of glycosylated substrate): 1000 ± 50 µM | improvement in potency versus AHA alone (ADAM10 [9]; in the presence of 1.1 µM CID 31176944): 10 fold | improvement in potency versus AHA alone (ADAM10 [9]; in the presence of 4.4 µM CID 31176944): 100 fold
Molecule: CC(=O)NO [AHA, acetohydroxamic acid]

IC50 (ADAM10 [1]; [11]): > 70 µM | IC50 (ADAM17 [2]): 7.8 µM
Molecule: CCOc1ccc(NC(=O)CC2SC(=O)N(c3ccccc3)C2=O)cc1 (stereo not shown) [CID 3153587]

IC50 (ADAM10 [1]; 384 well plate format): 0.033 µM | IC50 (ADAM10 [1]; 1536 well plate format): 0.02 µM | potency for hydrolysis of glycosylated versus non-glycosylated substrate (ADAM10 [10]): same potency
Molecule: CNC(=O)[C@@H](NC(=O)[C@H](CC(C)C)[C@H](O)C(=O)NO)C(C)(C)C [marimastat, reference compound]

IC50 (ADAM10 [1]; [11]): 32 µM | IC50 (ADAM17 [2]): 3.2 µM
Molecule: O=C1NC(=O)C(Cc2ccc(Cl)cc2)(c2ccccc2)N1 (stereo not shown) [CID 236330]

Molecule: O=C(NO)[C@H]1C[C@H](OC(=O)N2CCCC2)CC[C@@H]1C(=O)N1CCC(c2ccccc2)CC1 [INCB8765]
IC50 (ADAM10 [3]): 0.097 µM | IC50 (ADAM17 [8]): 2.04 µM

B1: ADAM10 prodomain: Biozyme Inc.; competitive inhibitor of ADAM10 (protein)
chain: NPLNKYIRHYEGLSYNVDSLHQKHQRAKRAVSHEDQFLLLDFHAHGRQFNLRMKRDTSLFSDEFKVETSNKVLDYDTSHIYTGHIYGEEGSFSHGSVIDGRFEGFIKTRGGTFYIEPAERYIKDRILPFHSVIYHEDDINYPHKYGPQGGCADHSVFERMRKYQMTGVEEGARAHPEKHAASSGPELLRKK
modifications: tag omitted
IC50 (ADAM10 [3]): 0.048 µM | IC50 (ADAM17 [8]): > 10 µM
